Results published in patent US20230002359A1, “PESTICIDALLY ACTIVE FUSED BICYCLIC HETEROAROMATIC COMPOUNDS” (priority 2019, published 2023).

Assays:
Type in all cases: in vivo
[1] = test system: Euschistus heros (Neotropical Brown Stink Bug); assay: Example B2: Euschistus heros (neotropical brown stink bug), soybean leaves sprayed, N2 nymphs; conditions: 120 h, application rate of 200 ppm, 5 days after infestation, N2 nymphs, read-out: control in at least one of the two categories (mortality or growth inhibition)
Experimental: Soybean leaves on agar in 24-well microtiter plates were sprayed with aqueous test solutions prepared from 10′000 ppm DMSO stock solutions. After drying the leaves were infested with N2 nymphs. The samples were assessed for mortality and growth inhibition in comparison to untreated samples 5 days after infestation.

[2] = test system: Diabrotica Balteata (Corn Root Worm); assay: Example B1: Diabrotica balteata (corn root worm), maize sprouts sprayed, L2 larvae; conditions: 96 h, application rate of 200 ppm, 4 days after infestation, L2 larvae, read-out: control in at least one of the two categories (mortality or growth inhibition)
Outline: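 Maize sprouts on agar were sprayed with aqueous test solutions made from 10′000 ppm DMSO stocks, dried, then infested with 6 to 10 L2 larvae per well. Mortality and growth inhibition were scored against untreated samples 4 days after infestation.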

[3] = test system: Plutella xylostella (Diamond Back Moth); assay: Example B4: Plutella xylostella (diamond back moth), artificial diet, eggs, 24-well; conditions: 192 h, application rate of 200 ppm, 8 days after infestation, eggs, read-out: control in at least one of the two categories (mortality or growth inhibition)
Experimental: 24-well microtiter plates with artificial diet were treated with aqueous test solutions prepared from 10′000 ppm DMSO stock solutions by pipetting. After drying, Plutella eggs were pipetted through a plastic stencil onto a gel blotting paper and the plate was closed with it. The samples were assessed for mortality and growth inhibition in comparison to untreated samples 8 days after infestation.

[4] = test system: Chilo suppressalis (Striped Rice Stemborer); assay: Example B3: Chilo suppressalis (striped rice stemborer), artificial diet, L2 larvae; conditions: 144 h, application rate of 200 ppm, 6 days after infestation, L2 larvae, read-out: control in at least one of the three categories (mortality, anti-feedant effect, or growth inhibition)
Outline: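 Scoring covers mortality, anti-feedant effect and growth inhibition at 6 days post-infestation, relative to untreated diet, with activity defined as at least one category above untreated. Test solutions were aqueous, made from 10'000 ppm DMSO stocks, and applied to artificial diet before drying and infestation with L2 larvae.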

[5] = test system: Spodoptera littoralis (Egyptian Cotton Leaf Worm); assay: Example B7: Spodoptera littoralis (Egyptian cotton leaf worm), cotton leaf discs sprayed, L1 larvae; conditions: foliar, 72 h, application rate of 200 ppm, 3 days after infestation, L1 larvae, read-out: control in at least one of the three categories (mortality, anti-feedant effect, or growth inhibition)
Outline: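 Leaf discs on agar; spray, aqueous dilution of 10′000 ppm DMSO stock; dry; 5 L1 larvae/disc. Read at 3 d post-infestation: mortality, antifeedant, growth inhibition vs untreated. Control = ≥1 category above untreated.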

[6] = test system: Myzus persicae (Green Peach Aphid); assay: Example B6: Myzus persicae (green peach aphid) intrinsic activity, sucrose solution; conditions: 120 h, test rate of 12 ppm, 5 days after infestation, intrinsic activity, read-out: mortality
Experimental: Test compounds prepared from 10′000 ppm DMSO stock solutions were applied by pipette into 24-well microtiter plates and mixed with sucrose solution. The plates were closed with a stretched Parafilm. A plastic stencil with 24 holes was placed onto the plate and infested pea seedlings were placed directly on the Parafilm. The infested plate was closed with a gel blotting paper and another plastic stencil and then turned upside down. The samples were assessed for mortality 5 days after infestation.

COc1nc(N(CC2CC2)C(C)c2ncnn2-c2ncccn2)c2cc(C(F)(F)F)cc(Cl)c2n1 (stereo not shown) [P.36, 8-chloro-N-(cyclopropylmethyl)-2-methoxy-N-[1-(2-pyrimidin-2-yl-1,2,4-triazol-3-yl)ethyl]-6-(trifluoromethyl)quinazolin-4-amine]
≥ 80%: percent control (mortality or growth inhibition) at 200 ppm [1] | percent control (mortality or growth inhibition) at 200 ppm [2]

CC(Nc1ncnc2c(Cl)cc(C(F)(F)F)cc12)c1ncnn1-c1ncccn1 (stereo not shown) [P.43, 8-chloro-N-[1-(2-pyrimidin-2-yl-1,2,4-triazol-3-yl)ethyl]-6-(trifluoromethyl)quinazolin-4-amine]
≥ 80%: percent control (mortality or growth inhibition) at 200 ppm [1] | percent control (mortality or growth inhibition) at 200 ppm [2] | percent control (mortality or growth inhibition) at 200 ppm [3] | percent control (mortality, anti-feedant effect or growth inhibition) at 200 ppm [4]

CC(c1nccnc1-n1nccn1)N(CC1CC1)c1ncnc2c(C(F)(F)F)cc(C(F)(F)F)cc12 (stereo not shown) [P.75, N-(cyclopropylmethyl)-N-[1-[3-(triazol-2-yl)pyrazin-2-yl]ethyl]-6,8-bis(trifluoromethyl)quina-zolin-4-amine]
≥ 80%: percent control (mortality or growth inhibition) at 200 ppm [1] | percent control (mortality or growth inhibition) at 200 ppm [2] | percent control (mortality or growth inhibition) at 200 ppm [3] | percent control (mortality, anti-feedant effect or growth inhibition) at 200 ppm [4]

CC(c1nccnc1-n1nccn1)N(CC1CC1)c1ncnc2c(C(F)(F)F)cc(Br)cc12 (stereo not shown) [P.78, 6-bromo-N-(cyclopropylmethyl)-N-[1-[3-(triazol-2-yl)pyrazin-2-yl]ethyl]-8-(trifluoromethyl)quinazolin-4-amine]
≥ 80%: percent control (mortality or growth inhibition) at 200 ppm [1] | percent control (mortality or growth inhibition) at 200 ppm [2] | percent control (mortality or growth inhibition) at 200 ppm [3] | percent control (mortality, anti-feedant effect or growth inhibition) at 200 ppm [4]

C[C@@H](c1ncnn1-c1ncccn1)N(C)c1ncnc2c(C(F)(F)F)cc(Br)cc12 [P.208, 6-bromo-N-methyl-N-[(1S)-1-(2-pyrimidin-2-yl-1,2,4-triazol-3-yl)ethyl]-8-(trifluoromethyl)quinazolin-4-amine]
≥ 80%: percent control (mortality or growth inhibition) at 200 ppm [2] | percent control (mortality, anti-feedant effect or growth inhibition) at 200 ppm [5] | percent control (mortality or growth inhibition) at 200 ppm [3] | percent control (mortality, anti-feedant effect or growth inhibition) at 200 ppm [4] | mortality at 12 ppm [6]

CC(Nc1ncnc2c(Br)cc(OC(F)(F)F)cc12)c1ncnn1-c1ncccn1 (stereo not shown) [P.229, 8-bromo-N-[1-(2-pyrimidin-2-yl-1,2,4-triazol-3-yl)ethyl]-6-(trifluoromethoxy)quinazo-line-4-amine]
≥ 80%: percent control (mortality or growth inhibition) at 200 ppm [2] | percent control (mortality, anti-feedant effect or growth inhibition) at 200 ppm [5] | percent control (mortality or growth inhibition) at 200 ppm [3] | percent control (mortality, anti-feedant effect or growth inhibition) at 200 ppm [4] | mortality at 12 ppm [6]

CC(c1ncnn1-c1ccc(C#N)cn1)N(C)c1ncnc2c(OC(F)F)cc(Br)cc12 (stereo not shown) [P.230, 6-[5-[1-[[6-bromo-8-(difluoromethoxy)quinazo-lin-4-yl]-methyl-amino]ethyl]-1,2,4-triazol-1-yl]pyridine-3-carbonitrile]
≥ 80%: percent control (mortality or growth inhibition) at 200 ppm [2] | percent control (mortality, anti-feedant effect or growth inhibition) at 200 ppm [5] | percent control (mortality or growth inhibition) at 200 ppm [3] | percent control (mortality, anti-feedant effect or growth inhibition) at 200 ppm [4] | mortality at 12 ppm [6]

CC(Nc1ncnc2c(OC(F)F)cc(Br)cc12)c1ncnn1-c1ncccn1 (stereo not shown) [P.243, 6-bromo-8-(difluoromethoxy)-N-[1-(2-pyrimidin-2-yl-1,2,4-triazol-3-yl)ethyl]quinazolin-4-amine]
≥ 80%: percent control (mortality or growth inhibition) at 200 ppm [2] | percent control (mortality, anti-feedant effect or growth inhibition) at 200 ppm [5] | percent control (mortality or growth inhibition) at 200 ppm [3] | percent control (mortality, anti-feedant effect or growth inhibition) at 200 ppm [4] | mortality at 12 ppm [6]
